Data as given in ChEMBL document CHEMBL1201862, “PubChem BioAssay data set” (2004).
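A five-concentration, 48-hour dose response in 96-well plates underlies each endpoint, interpolated linearly between surrounding concentrations. GI50 marks 50% less growth.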 Active and inactive are the calls of the source. Rule as the data show it: active = GI50 up to about 1.1 µM and inactive = higher.

Experiments:
Experiment in all cases: NCI tumour cell line growth inhibition, 48 h
U-251 = test system: U-251
OVCAR-5 = test system: OVCAR-5
786-0 = test system: 786-0
LOX IMVI = test system: LOX IMVI
CCRF-CEM = test system: CCRF-CEM
SF-268 = test system: SF-268
HCT-116 = test system: HCT-116
K562 = test system: K562
HT-29 = test system: HT-29
KM12 = test system: KM12
Malme-3M = test system: Malme-3M
SK-OV-3 = test system: SK-OV-3
SF-539 = test system: SF-539
SK-MEL-5 = test system: SK-MEL-5
NCI-H226 = test system: NCI-H226

Measured: GI50

C[N+](C)(C)CC1CCCC/C1=N\O (configuration not stated)
inactive: U-251 > 100 µM | OVCAR-5 > 100 µM | 786-0 > 100 µM | LOX IMVI > 100 µM | CCRF-CEM > 100 µM | SF-268 > 100 µM | HCT-116 > 100 µM | K562 > 100 µM | HT-29 > 100 µM | KM12 > 100 µM | Malme-3M > 100 µM | SK-OV-3 > 100 µM | SF-539 > 100 µM

O=C(O)C1OC(Oc2cc(O)c3c(=O)cc(-c4ccc(O)cc4)oc3c2)C(O)C(O)C1O (configuration not stated)
inactive: U-251 > 100 µM | OVCAR-5 > 100 µM | 786-0 77.3 µM | LOX IMVI > 100 µM | SF-268 > 100 µM | HCT-116 > 100 µM | HT-29 > 100 µM | KM12 > 100 µM | Malme-3M > 100 µM | SK-MEL-5 > 100 µM | NCI-H226 > 100 µM | SF-539 > 100 µM

Cc1cc(Cl)ccc1NC1=NC(=O)C(CC(=O)Nc2ccc(Cl)cc2Cl)S1 (configuration not stated)
inactive: U-251 > 100 µM | OVCAR-5 > 100 µM | 786-0 > 100 µM | LOX IMVI > 100 µM | CCRF-CEM > 100 µM | SF-268 > 100 µM | K562 > 100 µM | HT-29 > 100 µM | KM12 > 100 µM | Malme-3M > 100 µM | SK-MEL-5 > 100 µM | SK-OV-3 > 100 µM | SF-539 > 100 µM

CN(C)CC(/C(Cc1ccccc1)=N\NC(=S)NN)c1ccccc1 (configuration not stated)
inactive: U-251 > 100 µM | OVCAR-5 > 100 µM | 786-0 > 100 µM | LOX IMVI > 100 µM | SF-268 > 100 µM | HCT-116 > 100 µM | K562 > 100 µM | HT-29 > 100 µM | KM12 > 100 µM | Malme-3M > 100 µM | NCI-H226 > 100 µM | SK-OV-3 > 100 µM | SF-539 > 100 µM

O=[N+]([O-])c1cc(-c2nnc(S)[nH]2)ccc1O
inactive: U-251 > 100 µM | OVCAR-5 > 100 µM | 786-0 > 100 µM | LOX IMVI > 100 µM | CCRF-CEM > 100 µM | SF-268 > 100 µM | HCT-116 > 100 µM | K562 > 100 µM | HT-29 > 100 µM | KM12 > 100 µM | Malme-3M > 100 µM | SK-MEL-5 > 100 µM | SK-OV-3 > 100 µM | SF-539 > 100 µM

O=C1C2=C(c3ccccc31)C(c1ccccc1)NC(S)=N2 (configuration not stated)
inactive: U-251 50.1 µM | OVCAR-5 > 100 µM | 786-0 27.4 µM | CCRF-CEM 30.1 µM | SF-268 30.8 µM | HCT-116 29 µM | K562 22.3 µM | HT-29 57.5 µM | KM12 41.9 µM | Malme-3M > 100 µM | SK-MEL-5 54.8 µM | NCI-H226 > 100 µM | SK-OV-3 > 100 µM | SF-539 19.2 µM

N#CNc1nc(C(=O)Nc2ccc(Cl)cc2)cc(-c2ccccc2)n1
inactive: U-251 > 100 µM | OVCAR-5 > 100 µM | 786-0 > 100 µM | SF-268 > 100 µM | HCT-116 > 100 µM | K562 > 100 µM | HT-29 > 100 µM | KM12 > 100 µM | Malme-3M > 100 µM | SK-MEL-5 > 100 µM | NCI-H226 > 100 µM | SF-539 > 100 µM

CC1CC(=O)C(CC(=O)O)[C@H]1C(C(=O)C(=O)Nc1cc(Cl)ccc1Cl)[N+](=O)[O-] (some centres not stated)
inactive: U-251 > 100 µM | OVCAR-5 > 100 µM | 786-0 > 100 µM | LOX IMVI > 100 µM | CCRF-CEM > 100 µM | SF-268 > 100 µM | K562 > 100 µM | HT-29 > 100 µM | KM12 > 100 µM | SK-MEL-5 > 100 µM | NCI-H226 > 100 µM | SK-OV-3 > 100 µM | SF-539 > 100 µM

CC(C)C1CNC2N1C(=O)C2(C)OCc1ccccc1 (configuration not stated)
inactive: U-251 > 100 µM | 786-0 > 100 µM | LOX IMVI > 100 µM | CCRF-CEM > 100 µM | SF-268 > 100 µM | HCT-116 > 100 µM | K562 > 100 µM | HT-29 > 100 µM | Malme-3M > 100 µM | SK-MEL-5 > 100 µM | NCI-H226 40.6 µM | SF-539 > 100 µM

O=C1CCC2(c3ccccc3)OCC([C@@H](O)c3ccccc3)N12 (some centres not stated)
inactive: U-251 > 100 µM | OVCAR-5 > 100 µM | 786-0 > 100 µM | LOX IMVI > 100 µM | CCRF-CEM > 100 µM | SF-268 > 100 µM | HCT-116 > 100 µM | K562 > 100 µM | HT-29 > 100 µM | KM12 > 100 µM | Malme-3M > 100 µM | SK-MEL-5 > 100 µM | SF-539 > 100 µM

Nc1ccc(O)c2c1C(=O)c1c(N)ccc(O)c1C2=O
inactive: U-251 > 100 µM | OVCAR-5 > 100 µM | 786-0 > 100 µM | LOX IMVI > 100 µM | CCRF-CEM > 100 µM | SF-268 > 100 µM | HCT-116 > 100 µM | K562 > 100 µM | KM12 > 100 µM | Malme-3M > 100 µM | SK-MEL-5 > 100 µM | SK-OV-3 > 100 µM | SF-539 > 100 µM
